In US9168286B2, “Methods and compositions for use in treatment of patients with autoantibody positive disease” (Human Genome Sciences, Inc., priority 2005, dated 2015):

B1: IFN gamma: cytokine (protein, UniProt P01579 24-161, looked up)
Interferon gamma: QDPYVKEAENLKKYFNAGHSDVADNGTLFLGILKNWKEESDRKIMQSQIVSFYFKLFKNFKDDQSIQKSVETIKEDMNVKFFNSNKKKRDDFEKLTNYSVTDLNVQRKAIHELIQVMAELSPAAKTGKRKRSQMLFRG
B2: IL-10: cytokine (protein, UniProt P22301 19-178, looked up)
Interleukin-10: SPGQGTQSENSCTHFPGNLPNMLRDLRDAFSRVKTFFQMKDQLDNLLLKESLLEDFKGYLGCQALSEMIQFYLEEVMPQAENQDPDIKAHVNSLGENLKTLRLRLRRCHRFLPCENKSKAVEQVKNAFNKLQEKGIYKAMSEFDIFINYIEAYMTMKIRN
B3: IL-4: cytokine (protein, UniProt P05112 25-153, looked up)
Interleukin-4: HKCDITLQEIIKTLNSLTEQKTLCTELTVTDIFAASKNTTEKETFCRAATVLRQFYSHHEKDTRCLGATAQQFHRHKQLIRFLKRLDRNLWGLAGLNSCPVKEANQSTLENFLERLKTIMREKYSKCSS

Key:
[1] = system: B cells; assay: B cell survival assay; type: cell-based, mouse; conditions: Pim-1−/−2−/− B cells, 100 ng/ml rhuNeutrokine-alpha, 4 days
Text: Mice: Pim-1^+/+2^+/+, Pim-1^−/−2^+/+, Pim-1^+/+2^−/− and Pim-1^−/−2^−/− mice were generated from Pim-1^+/−2^+/− stock of Paul Rothman Columbia University, New York, N.Y. C57BL/6 (B6) mice were from The Jackson Laboratory, Bar Harbor Me. or from the National Cancer Institute Production Program, NCI-Fredrick, Fredrick Md. Animals were bred and maintained at the Univ. of Pennsylvania, Harvard Medical School, or the Univ. of Massachusetts Medical School in accordance with Institutional Animal Care and Use Committee guidelines.
B cell purification: Splenic B cells were obtained by anti-thy1.2 and complement treatment of splenocytes followed by purification of resting B cells using a step wise percoll gradient and harvesting cells at the 60-70% interface. […]
Survival assays: B cells at 5×10^6/ml were cultured in 24-well tissue culture dishes in CM at 37° C. […] Survival was monitored daily by counting viable cells using trypan blue exclusion with each determination done in triplicate.
Rapamycin is a potent inhibitor of mTOR and a potent suppressor of B cell proliferation and differentiation. […] Viable cells were determined at day 4. […]

[2] = system: Pim1 and Pim 2; assay: Western blot of Pim1 and Pim 2 expression in primary B cells; type: cell-based, mouse; conditions: 2 days, 100 ng/ml rhuNeutrokine-alpha
Description: Antibodies and Western Blotting: Mouse anti-Pim 2 (1D12), Pim 1 (19F7), goat anti-actin (1-19), anti-mouse Ig, anti-rabbit Ig and anti-goat Ig coupled to HRP were obtained from Santa Cruz Biotechnology, Santa Cruz Calif. […] Rabbit anti-mouse Mcl-1 was purchased from Rockland, Wilmington Mass. Whole cell lysates were prepared by washing B cells in ice cold PBS and lysing in RIPA (150 mM NaCl, 1% NP-40, 0.5% sodium deoxycholate, 0.1% SDS, 50 mM Tris pH8.0) supplemented with protease inhibitors (minitab, Roche, Indianapolis Ind.) and phosphatase inhibitor cocktails I and II (Sigma). 10-50 ug of protein was resolved on 4-12% NuPage bis-tris polyacrylamide gels (Invitrogen, Carlsbad Calif.) and transferred to nitrocellulose. Blots were blocked with 3% BSA (Sigma, IgG free), 0.2% Tween-20 in PBS and incubated with primary antibody in the same buffer overnight at 4° C. Blots were washed with PBS-0.2% Tween-20, incubated with secondary antibody conjugated with HRP and developed using ECLplus (Amersham Bioscience, Piscataway N.J.). Blots were stripped for reprobing by incubation for 20 minutes at 65° C. in PBS supplemented with 1% SDS and […] β-mercaptoethanol. Blots were then washed and blocked as above. […]

[3] = system: Akt/mTOR pathway; assay: Western blotting of Akt/mTOR pathway phosphorylation in B cells; type: cell-based, mouse
Description: Cell cultures: Purified B cells or CD23′ B cells were cultured in RPMI-1640 supplemented with 2-mercaptoethanol, MEM-non-essential amino acids, glutamine, penicillin and streptomycin (complete media, CM). For B cell survival and other assays recombinant human Neutrokine-alpha made at Human Genome Sciences, Rockville Md. was used at 50-100 ng/ml. FLAG-tagged human Neutrokine-alpha was from Dr. Randolph Noelle, Dartmouth Medical School. Murine Neutrokine-alpha was purchased from Alexis Biochemicals, San Diego Calif. and human interferon alpha (IFNα) from PBL Biomedical, Piscataway, N.J. Rapamycin was used at a final concentration of 50 nM, added to cultures from a stock dissolve in methanol. Control B cells in experiments using rapamycin were treated with methanol as a vehicle control. For kinetic assays B cells were prepared and refrigerated overnight at 4° C. 5-6×10^6 purified B cells per sample were spun onto 24-well plates that had been coated with 5 ug/ml monoclonal anti-FLAG M2 antibody (Sigma), washed, blocked with 1% BSA in PBS, followed by the addition of FLAG-tagged human Neutrokine-alpha 2 ug/well an hour prior to washing and cell addition. Unstimulated control B cells were those spun onto wells treated with anti-FLAG antibody alone. B cells were also activated by incubation with anti-murine IgM (5 ug/ml), anti-CD40 (0.5 ug/ml) or 100 ng/ml of recombinant human Neutrokine-alpha added to kinetic assay buffer (Hank's balanced salt solution plus 2% BSA).
Antibodies and Western Blotting: Mouse anti-Pim 2 (1D12), Pim 1 (19F7), goat anti-actin (1-19), anti-mouse Ig, anti-rabbit Ig and anti-goat Ig coupled to HRP were obtained from Santa Cruz Biotechnology, Santa Cruz Calif. […] Rabbit anti-mouse Mcl-1 was purchased from Rockland, Wilmington Mass. […]
Purified B cells were stimulated for the 0, 5, 20, 60 or 120 minutes with 100 ng/ml recombinant human or murine Neutrokine-alpha or anti-Ig (positive control) at 37° C. in pregassed medium. Lysates were prepared from iced samples and analyzed by Western Blot. […]

[4] = system: Neutrokine-alpha in monocytes and macrophages; assay: Neutrokine-alpha expression in cytokine-treated monocytes and macrophages; type: cell-based; conditions: in vitro
[5] = system: B cell; assay: Neutrokine-alpha mediated B cell proliferation with cytokines; type: cell-based
Description: In an additional embodiment, an immunomodulatory agent is administered in combination with cytokines. Cytokines that may be administered with an immunomodulatory agent include, but are not limited to, GM-CSF, G-CSF, IL2, IL3, IL4, IL5, IL6, IL7, IL10, IL12, IL13, IL15, anti-CD40, CD40L, IFN-alpha, IFN-beta, IFN-gamma, TNF-alpha, and TNF-beta. In another embodiment, an immunomodulatory agent may be administered with any interleukin, including but not limited to, IL-1alpha, IL-1beta, IL-2, IL-3, IL-4, IL-5, IL-6, IL-7, IL-8, IL-9, IL-10, IL-11, IL-12, IL-13, IL-14, IL-15, IL-16, IL-17, IL-18, IL-19, IL-20, IL-21, and IL-22. In preferred embodiments, an immunomodulatory agent is administered in combination with IL4 and IL10. Both IL4 and IL10 have been observed by the inventors to enhance Neutrokine-alpha mediated B cell proliferation.

Row | Molecule | B cell survival [1] | Pim1 and Pim 2 expression [2] | mTOR activation (phosphorylation of p70 S6 kinase and 4E-BP1) ([3]; primary B cells) | Akt phosphorylation (serine 473 and threonine 308) ([3]; primary B cells, 100 ng/ml, 0-120 minutes) | phosphorylation of GSKβ, FOXO1 and FOXO3a ([3]; purified B cells, plate bound FLAG-tagged or soluble (100 ng/ml) Neutrokine-alpha) | cell surface expression of Neutrokine-alpha [4] | Neutrokine-alpha mediated B cell proliferation [5]
1 | Neutrokine-alpha: recombinant human Neutrokine-alpha made at Human Genome Sciences; member of the TNF family of ligands | enhanced survival | upregulate | activation of mTOR | activation of the Akt pathway | phosphorylation of the Akt substrates | – | –
2 | B1 | – | – | – | – | – | enhance | –
3 | B2 | – | – | – | – | – | enhance | enhance
4 | B3 | – | – | – | – | – | decreased | enhance
